Experimental findings from ChEMBL document CHEMBL1128800, “Diastereoselective synthesis of mixanpril, an orally active dual inhibitor of neutral endopeptidase and angiotensin converting enzyme” (Bioorg Med Chem Lett, 1995) are described below.

In assay [1] the target is T1, Angiotensin-converting enzyme (Rattus norvegicus) (UniProt P47820).
T1 sequence (whole entry): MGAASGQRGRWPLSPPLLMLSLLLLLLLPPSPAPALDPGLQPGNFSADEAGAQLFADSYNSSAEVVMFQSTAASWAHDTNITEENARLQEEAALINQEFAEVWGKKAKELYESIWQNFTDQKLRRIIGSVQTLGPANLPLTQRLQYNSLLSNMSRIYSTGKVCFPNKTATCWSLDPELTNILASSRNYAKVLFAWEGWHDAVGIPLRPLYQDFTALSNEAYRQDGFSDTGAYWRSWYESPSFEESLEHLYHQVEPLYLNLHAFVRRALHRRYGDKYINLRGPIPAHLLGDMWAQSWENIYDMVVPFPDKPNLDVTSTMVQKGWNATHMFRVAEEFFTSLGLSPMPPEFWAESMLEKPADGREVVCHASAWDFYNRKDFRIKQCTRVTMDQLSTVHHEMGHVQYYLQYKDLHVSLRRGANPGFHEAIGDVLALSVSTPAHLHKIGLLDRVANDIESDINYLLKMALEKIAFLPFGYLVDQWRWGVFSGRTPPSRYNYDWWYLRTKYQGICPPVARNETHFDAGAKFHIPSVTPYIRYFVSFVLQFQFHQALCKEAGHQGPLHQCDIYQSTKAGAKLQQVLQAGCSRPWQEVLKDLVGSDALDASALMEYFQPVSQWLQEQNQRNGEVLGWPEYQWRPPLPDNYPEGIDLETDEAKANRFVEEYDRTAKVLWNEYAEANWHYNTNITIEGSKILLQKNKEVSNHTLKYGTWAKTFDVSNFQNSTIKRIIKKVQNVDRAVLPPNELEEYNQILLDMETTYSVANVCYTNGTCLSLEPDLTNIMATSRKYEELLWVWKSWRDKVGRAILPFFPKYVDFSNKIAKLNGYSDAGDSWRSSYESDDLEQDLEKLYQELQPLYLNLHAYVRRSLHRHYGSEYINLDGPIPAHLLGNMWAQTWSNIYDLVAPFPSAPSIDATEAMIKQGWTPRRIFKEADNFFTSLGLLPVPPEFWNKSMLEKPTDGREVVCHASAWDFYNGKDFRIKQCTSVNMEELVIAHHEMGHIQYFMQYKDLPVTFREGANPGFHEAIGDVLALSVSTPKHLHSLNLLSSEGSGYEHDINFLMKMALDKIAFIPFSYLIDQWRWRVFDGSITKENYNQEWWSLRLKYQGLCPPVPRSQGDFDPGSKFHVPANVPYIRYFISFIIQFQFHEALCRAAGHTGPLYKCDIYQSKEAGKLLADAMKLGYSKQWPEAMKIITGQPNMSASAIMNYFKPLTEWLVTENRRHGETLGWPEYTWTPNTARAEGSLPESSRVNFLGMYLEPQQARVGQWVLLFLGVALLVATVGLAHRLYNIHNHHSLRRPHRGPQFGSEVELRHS
Put plainly: […] inhibitory activity against plasmatic angiotensin converting enzyme (ACE) in anaesthetized rats after oral administration of 5 mg/kg dose. The format is organism-based. Also noted: dose 5 mg/kg.

Assay [2] deals with T1, Angiotensin-converting enzyme (Rattus norvegicus). Put plainly: […] inhibitory activity against plasmatic angiotensin converting enzyme (ACE) in anaesthetized rats after oral administration of 150 mg/kg dose. The format is organism-based. Also noted: dose 150 mg/kg.
Assay [3] shares this target. The assay can be described thus: […] inhibitory activity against plasmatic angiotensin converting enzyme (ACE) in anaesthetized rats after oral administration of 2.5 mg/kg dose. Format: organism-based. Also noted: dose 2.5 mg/kg.
Assay [4] has as its target T2, Neprilysin (Rattus norvegicus) (UniProt P07861).
T2 sequence (whole entry): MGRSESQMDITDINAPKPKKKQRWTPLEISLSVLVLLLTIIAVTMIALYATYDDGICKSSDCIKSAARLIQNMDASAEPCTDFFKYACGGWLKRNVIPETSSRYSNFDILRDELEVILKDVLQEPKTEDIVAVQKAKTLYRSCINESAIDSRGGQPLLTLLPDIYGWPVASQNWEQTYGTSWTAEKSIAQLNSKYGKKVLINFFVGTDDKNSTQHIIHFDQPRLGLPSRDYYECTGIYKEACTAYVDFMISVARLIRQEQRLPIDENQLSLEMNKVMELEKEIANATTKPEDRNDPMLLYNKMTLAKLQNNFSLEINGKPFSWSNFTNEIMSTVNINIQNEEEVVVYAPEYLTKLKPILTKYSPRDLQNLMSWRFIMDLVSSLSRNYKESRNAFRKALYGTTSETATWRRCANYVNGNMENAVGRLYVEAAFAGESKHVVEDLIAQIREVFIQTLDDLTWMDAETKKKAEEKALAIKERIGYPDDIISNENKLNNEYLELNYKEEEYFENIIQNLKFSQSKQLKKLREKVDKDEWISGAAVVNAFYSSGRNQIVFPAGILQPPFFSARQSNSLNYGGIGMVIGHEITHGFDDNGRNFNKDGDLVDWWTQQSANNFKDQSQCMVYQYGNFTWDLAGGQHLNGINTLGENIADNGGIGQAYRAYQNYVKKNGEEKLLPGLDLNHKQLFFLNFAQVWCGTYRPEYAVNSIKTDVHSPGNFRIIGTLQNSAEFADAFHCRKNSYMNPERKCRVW
The assay can be described thus: Tested for inhibitory activity against neutral endopeptidase at a dose of 2.5 mg/kg in rats; Active. Format: organism-based. Also noted: dose 2.5 mg/kg.

The target of assay [5] is T1, Angiotensin-converting enzyme (Rattus norvegicus). The assay can be described thus: Effective dose against plasmatic angiotensin converting enzyme (ACE) in anaesthetized rats. The following applies: Plasma.
The target is the same in assay [6]. The assay can be described thus: […] inhibitory activity against plasmatic angiotensin converting enzyme (ACE) in anaesthetized rats after oral administration of 10 mg/kg dose. Format: organism-based. Also noted: dose 10 mg/kg.
Assay [7] shares this target. The assay can be described thus: […] inhibitory activity against plasmatic angiotensin converting enzyme (ACE) in anaesthetized rats after oral administration of 100 mg/kg dose. Format: organism-based. Also noted: dose 100 mg/kg.
Assay [8] shares this target. The assay can be described thus: […] inhibitory activity against plasmatic angiotensin converting enzyme (ACE) in anaesthetized rats after oral administration of 50 mg/kg dose. Format: organism-based. Also noted: dose 50 mg/kg.
The target is the same in assay [9]. The assay can be described thus: […] inhibitory activity against plasmatic angiotensin converting enzyme (ACE) in anaesthetized rats after oral administration of 25 mg/kg dose. The format is organism-based. Also noted: dose 25 mg/kg.

Calls of active or inactive are those of the source. The calls are words filed in the database; no cut-off is given here.

As a reminder, the inhibition is how much of the control response was suppressed. A lower inhibition goes with a weak effect. What is called ED50 is the dose that gives a 50% effect, or the effect in half of the subjects. A higher ED50 goes with weaker potency. As to `CC(NC(=O)C(CSC(=O)c1ccccc1)C(C)c1ccccc1)C(=O)O` (centres undefined), the inhibition was 35% in assay [1]; 82% in assay [2]; 25% in assay [3]; 50% in assay [6]; 70% in [7]; 65% in assay [8]. The molecule further yielded an inhibition in assay [9] of 55%. Further, the outcome in [4] was Active. In assay [5], this molecule registered an ED50 of 12 mg/kg.
